Test results from US10316028B2, “Orexin receptor antagonists” (Heptares Therapeutics Limited, priority 2012, dated 2019).

Molecular target: T1, human Orexin-2 receptor (Homo sapiens, UniProt O43614)
T1 construct: expressed in transfected cells; host or cells: HEK293 cells (transient transfection, Genejuice); membranes
T1 sequence (O43614 1-444): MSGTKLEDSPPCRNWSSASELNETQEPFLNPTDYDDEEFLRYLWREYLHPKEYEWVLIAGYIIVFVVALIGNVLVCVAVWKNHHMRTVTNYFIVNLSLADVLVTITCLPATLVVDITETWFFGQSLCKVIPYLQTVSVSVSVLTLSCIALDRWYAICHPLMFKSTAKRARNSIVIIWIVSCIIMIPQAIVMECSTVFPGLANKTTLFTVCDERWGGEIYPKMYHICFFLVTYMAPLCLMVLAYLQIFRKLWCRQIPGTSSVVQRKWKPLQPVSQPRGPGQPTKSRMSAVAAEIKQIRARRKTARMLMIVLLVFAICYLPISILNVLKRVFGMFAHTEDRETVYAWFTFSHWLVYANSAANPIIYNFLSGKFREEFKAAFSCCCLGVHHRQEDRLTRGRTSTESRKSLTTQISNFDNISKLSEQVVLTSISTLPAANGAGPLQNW
Test: 3H-EMPA radioligand binding assay
Details: 3H-EMPA displacement, membranes of HEK293 cells transfected with human Orexin-2 receptor; KI by Cheng-Prussoff; read-out: OX2 pKi ave (converted)
Procedure, shortened: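 Membranes from HEK293 cells transiently transfected with human orexin-2 receptor cDNA, assayed with [3H]EMPA. Bound ligand collected on PEI-treated GF/B filters and counted by scintillation; IC50 from inhibition curves, Ki by Cheng-Prusoff.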

Compound: O=C1N(Cc2c(F)cc(F)cc2F)c2ccccc2S(=O)(=O)N1c1ccc2ncsc2c1 [Example 124, 2-(1,3-Benzothiazol-6-yl)-4-(2,4,6-trifluorobenzyl)-2H-1,2,4-benzothiadiazin-3(4H)-one 1,1-dioxide]
- Ki: 0.00501 µM

Compound: Cn1nc(CN2C(=O)N(Cc3c(F)cccc3F)c3ccccc3S2(=O)=O)c2ccccc21 [Example 125, 4-(2,6-Difluorobenzyl)-2-[(1-methyl-1H-indazol-3-yl)methyl]-2H-1,2,4-benzothiadiazin-3(4H)-one 1,1-dioxide]
- Ki: 0.038 µM

Compound: O=C1N(Cc2c(F)cccc2F)c2ccccc2S(=O)(=O)N1Cc1cc(=O)[nH]c2ccccc12 [Example 126, 4-(2,6-Difluorobenzyl)-2-[(2-oxo-1,2-dihydroquinolin-4-yl)methyl]-2H-1,2,4-benzothiadiazin-3(4H)-one 1,1-dioxide]
- Ki: 0.0355 µM

Compound: Cc1cc(CN2C(=O)N(Cc3c(F)cccc3Cl)c3ccccc3S2(=O)=O)n(C)n1 [Example 127, 4-(2-Chloro-6-fluorobenzyl)-2-[(1,3-dimethyl-1H-pyrazol-5-yl)methyl]-2H-1,2,4-benzothiadiazin-3(4H)-one 1,1-dioxide]
- Ki: 0.0589 µM

Compound: O=C1N(Cc2c(F)cccc2Cl)c2ccccc2S(=O)(=O)N1Cc1ccccn1 [Example 128, 4-(2-Chloro-6-fluorobenzyl)-2-(pyridin-2-ylmethyl)-2H-1,2,4-benzothiadiazin-3(4H)-one 1,1-dioxide]
- Ki: 0.0794 µM

Compound: Cc1cc(CN2C(=O)N(Cc3c(F)cccc3Cl)c3ccccc3S2(=O)=O)no1 [Example 129, 4-(2-Chloro-6-fluorobenzyl)-2-[(5-methyl-1,2-oxazol-3-yl)methyl]-2H-1,2,4-benzothiadiazin-3(4H)-one 1,1-dioxide]
- Ki: 0.115 µM

Compound: COc1ccc(N2C(=O)N(Cc3ccccc3C)c3c(F)cccc3S2(=O)=O)cn1 [Example 130, 5-Fluoro-2-(6-methoxypyridin-3-yl)-4-(2-methylbenzyl)-2H-1,2,4-benzothiadiazin-3(4H)-one 1,1-dioxide]
- Ki: 0.0871 µM

Compound: Cn1ccnc1CN1C(=O)N(Cc2c(F)cccc2F)c2ccccc2S1(=O)=O [Example 131, 4-(2,6-Difluorobenzyl)-2-[(1-methyl-1H-imidazol-2-yl)methyl]-2H-1,2,4-benzothiadiazin-3(4H)-one 1,1-dioxide]
- Ki: 0.295 µM

Compound: Cn1cc(N2C(=O)N(Cc3c(F)cccc3Cl)c3ccccc3S2(=O)=O)ccc1=O [Example 132, 4-(2-Chloro-6-fluorobenzyl)-2-(1-methyl-6-oxo-1,6-dihydropyridin-3-yl)-2H-1,2,4-benzothiadiazin-3(4H)-one 1,1-dioxide]
- Ki: 0.302 µM

Compound: CCN1CCCC(N2C(=O)N(Cc3c(F)cccc3F)c3ccccc3S2(=O)=O)C1 (stereo not shown) [Example 133, 4-(2,6-Difluorobenzyl)-2-(1-ethylpiperidin-3-yl)-2H-1,2,4-benzothiadiazin-3(4H)-one 1,1-dioxide]
- Ki: 0.661 µM

Compound: Cc1cc(CN2C(=O)N(Cc3ccc(Cl)cc3F)c3ccccc3S2(=O)=O)n(C)n1 [Example 134, 4-(4-Chloro-2-fluorobenzyl)-2-[(1,3-dimethyl-1H-pyrazol-5-yl)methyl]-2H-1,2,4-benzothiadiazin-3(4H)-one 1,1-dioxide]
- Ki: 0.0398 µM

Compound: COc1ccc(N2C(=O)N(Cc3c(F)cc(C)cc3Cl)c3ccccc3S2(=O)=O)cn1 [Example 135, 4-(2-Chloro-6-fluoro-4-methylbenzyl)-2-(6-methoxypyridin-3-yl)-2H-1,2,4-benzothiadiazin-3(4H)-one 1,1-dioxide]
- Ki: 0.0138 µM

Compound: COc1cc(F)c(CN2C(=O)N(c3ccc(OC)nc3)S(=O)(=O)c3ccccc32)c(F)c1 [Example 136, 4-(2,6-Difluoro-4-methoxybenzyl)-2-(6-methoxypyridin-3-yl)-2H-1,2,4-benzothiadiazin-3(4H)-one 1,1-dioxide]
- Ki: 0.0107 µM

Compound: COc1ncc(N2C(=O)N(Cc3c(F)cccc3Cl)c3ccccc3S2(=O)=O)cn1 [Example 137, 4-(2-Chloro-6-fluorobenzyl)-2-(2-methoxypyrimidin-5-yl)-2H-1,2,4-benzothiadiazin-3(4H)-one 1,1-dioxide]
- Ki: 0.038 µM

Compound: COc1cc(F)c(CN2C(=O)N(c3cccc(OC)n3)S(=O)(=O)c3ccccc32)c(F)c1 [Example 138, 4-(2,6-Difluoro-4-methoxybenzyl)-2-(6-methoxypyridin-2-yl)-2H-1,2,4-benzothiadiazin-3(4H)-one 1,1-dioxide]
- Ki: 0.00145 µM

Compound: COc1cccc(N2C(=O)N(Cc3c(F)cc(F)cc3Cl)c3ccccc3S2(=O)=O)n1 [Example 139, 4-(2-Chloro-4,6-difluorobenzyl)-2-(6-methoxypyridin-2-yl)-2H-1,2,4-benzothiadiazin-3(4H)-one 1,1-dioxide]
- Ki: 0.0138 µM

Compound: COc1cc(F)c(CN2C(=O)N(c3ccnc(OC)c3)S(=O)(=O)c3ccccc32)c(F)c1 [Example 140, 4-(2,6-Difluoro-4-methoxybenzyl)-2-(2-methoxypyridin-4-yl)-2H-1,2,4-benzothiadiazin-3(4H)-one 1,1-dioxide]
- Ki: 0.00331 µM

Compound: COc1cc(N2C(=O)N(Cc3c(F)cc(F)cc3Cl)c3ccccc3S2(=O)=O)ccn1 [Example 141, 4-(2-Chloro-4,6-difluorobenzyl)-2-(2-methoxypyridin-4-yl)-2H-1,2,4-benzothiadiazin-3(4H)-one 1,1-dioxide]
- Ki: 0.00692 µM

Compound: Cc1ccc(N2C(=O)N(Cc3c(F)cccc3Cl)c3ccccc3S2(=O)=O)cn1 [Example 142, 4-(2-Chloro-6-fluorobenzyl)-2-(6-methylpyridin-3-yl)-2H-1,2,4-benzothiadiazin-3(4H)-one 1,1-dioxide]
- Ki: 0.0295 µM

Compound: COc1cc(N2C(=O)N(Cc3c(F)cccc3Cl)c3ccccc3S2(=O)=O)ccn1 [Example 143, 4-(2-Chloro-6-fluorobenzyl)-2-(2-methoxypyridin-4-yl)-2H-1,2,4-benzothiadiazin-3(4H)-one 1,1-dioxide]
- Ki: 0.0158 µM

Compound: COc1cccc(N2C(=O)N(Cc3c(F)cc(F)cc3F)c3ccccc3S2(=O)=O)n1 [Example 144, 2-(6-Methoxypyridin-2-yl)-4-(2,4,6-trifluorobenzyl)-2H-1,2,4-benzothiadiazin-3(4H)-one 1,1-dioxide]
- Ki: 0.0501 µM

Compound: COc1cc(F)c(CN2C(=O)N(c3cnc(OC)c(OC)c3)S(=O)(=O)c3ccccc32)c(F)c1 [Example 146, 4-(2,6-difluoro-4-methoxybenzyl)-2-(5,6-Dimethoxypyridin-3-yl)-2H-1,2,4-benzothiadiazin-3(4H)-one 1,1-dioxide]
- Ki: 0.000363 µM

Compound: COc1ccc(N2C(=O)N(Cc3c(F)cc(F)cc3F)c3ccccc3S2(=O)=O)nc1OC [Example 147, 2-(5,6-Dimethoxypyridin-2-yl)-4-(2,4,6-trifluorobenzyl)-2H-1,2,4-benzothiadiazin-3(4H)-one 1,1-dioxide]
- Ki: 0.00158 µM

Compound: COc1cc(N2C(=O)N(Cc3c(F)cc(F)cc3F)c3ccccc3S2(=O)=O)cc(OC)n1 [Example 148, 2-(2,6-Dimethoxypyridin-4-yl)-4-(2,4,6-trifluorobenzyl)-2H-1,2,4-benzothiadiazin-3(4H)-one 1,1-dioxide]
- Ki: 0.00138 µM

Compound: COc1cc(F)c(CN2C(=O)N(c3cc(OC)nc(OC)c3)S(=O)(=O)c3ccccc32)c(F)c1 [Example 149, 4-(2,6-Difluoro-4-methoxybenzyl)-2-(2,6-dimethoxypyridin-4-yl)-2H-1,2,4-benzothiadiazin-3(4H)-one 1,1-dioxide]
- Ki: 0.000138 µM
